*1 amine or outer side, *2 acyl side, *3 side chain or, on linkers, in order; H or OH if unused. Where a SMILES comes first, the peptide text is derived from it. The star is where a group is joined. AMC = Cc1cc(=O)oc2cc(N*)ccc12; Suc = O=C(CCC(=O)[*:2])[*:1]; Decanoyl = CCCCCCCCCC(=O)*
Experiments:
[1] = biological target: T1, NAD-dependent protein deacetylase sirtuin-7 (Homo sapiens) (UniProt Q9NRC8); assay: Substrate activity at human N-terminal His-tagged SIRT7 (68 to 354 residues) expressed in Escherichia coli at 0.5 uM measured after 2 hrs in presence of NAD+ and trypsin by fluorescence assay
T1 sequence (whole entry): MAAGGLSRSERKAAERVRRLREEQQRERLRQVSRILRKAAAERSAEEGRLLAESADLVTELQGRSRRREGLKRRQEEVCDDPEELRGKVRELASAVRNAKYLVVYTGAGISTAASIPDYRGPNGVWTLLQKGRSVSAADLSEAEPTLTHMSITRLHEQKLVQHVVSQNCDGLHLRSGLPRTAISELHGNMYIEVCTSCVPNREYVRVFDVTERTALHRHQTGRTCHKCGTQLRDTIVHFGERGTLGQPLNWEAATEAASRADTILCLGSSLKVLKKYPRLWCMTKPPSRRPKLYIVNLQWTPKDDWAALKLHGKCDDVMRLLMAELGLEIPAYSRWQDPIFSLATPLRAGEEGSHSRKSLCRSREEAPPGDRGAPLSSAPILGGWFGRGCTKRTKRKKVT

[2] = biological target: NAD-dependent protein deacylase sirtuin-6 (Homo sapiens) (UniProt Q8N6T7); assay: Substrate activity at human N-terminal His-tagged SIRT6 (1 to 355 residues) expressed in Escherichia coli at 0.5 uM measured after 2 hrs in presence of NAD+ and trypsin by fluorescence assay
[3] = biological target: NAD-dependent protein deacylase sirtuin-5, mitochondrial (Homo sapiens) (UniProt Q9NXA8); assay: Substrate activity at human N-terminal His-tagged SIRT5 (34 to 302 residues) expressed in Escherichia coli at 0.5 uM measured after 2 hrs in presence of NAD+ and trypsin by fluorescence assay
[4] = biological target: T2, NAD-dependent protein deacetylase sirtuin-3, mitochondrial (Homo sapiens) (UniProt Q9NTG7); assay: Substrate activity at human N-terminal His-tagged SIRT3 (122 to 391 residues) expressed in Escherichia coli at 0.5 uM measured after 2 hrs in presence of NAD+ and trypsin by fluorescence assay
T2 sequence (whole entry): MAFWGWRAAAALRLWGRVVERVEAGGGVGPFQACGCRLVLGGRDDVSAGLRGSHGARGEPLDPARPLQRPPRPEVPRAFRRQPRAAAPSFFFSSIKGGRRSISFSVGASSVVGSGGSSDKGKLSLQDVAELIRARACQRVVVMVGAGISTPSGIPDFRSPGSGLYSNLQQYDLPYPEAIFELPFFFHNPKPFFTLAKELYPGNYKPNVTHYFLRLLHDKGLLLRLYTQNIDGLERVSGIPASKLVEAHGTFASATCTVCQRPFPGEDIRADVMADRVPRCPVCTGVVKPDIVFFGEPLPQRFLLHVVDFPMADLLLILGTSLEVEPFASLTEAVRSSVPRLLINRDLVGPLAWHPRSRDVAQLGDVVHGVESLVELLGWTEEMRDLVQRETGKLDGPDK

[5] = biological target: T3, NAD-dependent protein deacetylase sirtuin-2 (Homo sapiens) (UniProt Q8IXJ6); assay: Substrate activity at human N-terminal His-tagged SIRT2 (56 to 356 residues) expressed in Escherichia coli at 0.5 uM measured after 2 hrs in presence of NAD+ and trypsin by fluorescence assay
T3 sequence (whole entry): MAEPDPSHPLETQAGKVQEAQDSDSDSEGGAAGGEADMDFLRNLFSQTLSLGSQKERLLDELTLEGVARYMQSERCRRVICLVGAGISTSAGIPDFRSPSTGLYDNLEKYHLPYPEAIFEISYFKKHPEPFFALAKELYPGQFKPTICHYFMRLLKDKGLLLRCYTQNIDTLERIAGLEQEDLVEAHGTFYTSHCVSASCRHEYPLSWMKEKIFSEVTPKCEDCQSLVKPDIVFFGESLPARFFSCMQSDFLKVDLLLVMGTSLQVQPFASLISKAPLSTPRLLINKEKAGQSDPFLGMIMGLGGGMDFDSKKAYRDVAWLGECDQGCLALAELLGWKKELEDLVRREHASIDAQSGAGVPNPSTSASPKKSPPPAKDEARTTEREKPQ

[6] = biological target: T4, NAD-dependent protein deacetylase sirtuin-1 (Homo sapiens) (UniProt Q96EB6); assay: Substrate activity at human N-terminal His-tagged SIRT1 (183 to 664 residues) expressed in Escherichia coli at 0.5 uM measured after 2 hrs in presence of NAD+ and trypsin by fluorescence assay
T4 sequence (whole entry): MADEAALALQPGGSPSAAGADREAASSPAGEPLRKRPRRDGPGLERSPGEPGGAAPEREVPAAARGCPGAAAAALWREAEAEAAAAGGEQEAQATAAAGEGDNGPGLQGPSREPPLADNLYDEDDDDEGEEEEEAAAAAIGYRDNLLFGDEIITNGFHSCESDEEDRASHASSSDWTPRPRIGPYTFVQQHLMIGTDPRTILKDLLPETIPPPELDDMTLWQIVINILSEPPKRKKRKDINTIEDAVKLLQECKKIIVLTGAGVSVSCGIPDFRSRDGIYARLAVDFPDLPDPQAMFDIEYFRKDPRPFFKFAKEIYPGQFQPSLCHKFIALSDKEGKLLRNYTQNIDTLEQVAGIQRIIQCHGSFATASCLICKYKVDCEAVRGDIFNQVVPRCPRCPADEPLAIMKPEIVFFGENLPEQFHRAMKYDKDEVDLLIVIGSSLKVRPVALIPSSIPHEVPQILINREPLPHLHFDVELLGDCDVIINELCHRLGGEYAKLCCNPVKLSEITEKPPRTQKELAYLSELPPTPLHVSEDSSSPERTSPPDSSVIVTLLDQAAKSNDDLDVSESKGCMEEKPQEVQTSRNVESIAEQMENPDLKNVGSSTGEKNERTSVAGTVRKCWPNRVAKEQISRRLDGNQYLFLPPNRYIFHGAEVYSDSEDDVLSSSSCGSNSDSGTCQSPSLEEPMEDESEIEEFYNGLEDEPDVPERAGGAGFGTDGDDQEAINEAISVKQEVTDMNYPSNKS

[7] = biological target: T1, NAD-dependent protein deacetylase sirtuin-7 (Homo sapiens); assay: Substrate activity at human N-terminal His-tagged SIRT7 (68 to 354 residues) expressed in Escherichia coli at 5 uM measured after 2 hrs in presence of NAD+ and trypsin by fluorescence assay
[8] = biological target: NAD-dependent protein deacylase sirtuin-6 (Homo sapiens) (UniProt Q8N6T7); assay: Substrate activity at human N-terminal His-tagged SIRT6 (1 to 355 residues) expressed in Escherichia coli at 5 uM measured after 2 hrs in presence of NAD+ and trypsin by fluorescence assay
[9] = biological target: NAD-dependent protein deacylase sirtuin-5, mitochondrial (Homo sapiens) (UniProt Q9NXA8); assay: Substrate activity at human N-terminal His-tagged SIRT5 (34 to 302 residues) expressed in Escherichia coli at 5 uM measured after 2 hrs in presence of NAD+ and trypsin by fluorescence assay
[10] = biological target: T2, NAD-dependent protein deacetylase sirtuin-3, mitochondrial (Homo sapiens); assay: Substrate activity at human N-terminal His-tagged SIRT3 (122 to 391 residues) expressed in Escherichia coli at 5 uM measured after 2 hrs in presence of NAD+ and trypsin by fluorescence assay
[11] = biological target: T3, NAD-dependent protein deacetylase sirtuin-2 (Homo sapiens); assay: Substrate activity at human N-terminal His-tagged SIRT2 (56 to 356 residues) expressed in Escherichia coli at 5 uM measured after 2 hrs in presence of NAD+ and trypsin by fluorescence assay
[12] = biological target: T4, NAD-dependent protein deacetylase sirtuin-1 (Homo sapiens); assay: Substrate activity at human N-terminal His-tagged SIRT1 (183 to 664 residues) expressed in Escherichia coli at 5 uM measured after 2 hrs in presence of NAD+ and trypsin by fluorescence assay
[13] = biological target: T1, NAD-dependent protein deacetylase sirtuin-7 (Homo sapiens); assay: Substrate activity at human N-terminal His-tagged SIRT7 (68 to 354 residues) expressed in Escherichia coli at 50 uM measured after 2 hrs in presence of NAD+ and trypsin by fluorescence assay
[14] = biological target: NAD-dependent protein deacylase sirtuin-6 (Homo sapiens) (UniProt Q8N6T7); assay: Substrate activity at human N-terminal His-tagged SIRT6 (1 to 355 residues) expressed in Escherichia coli at 50 uM measured after 2 hrs in presence of NAD+ and trypsin by fluorescence assay
[15] = biological target: NAD-dependent protein deacylase sirtuin-5, mitochondrial (Homo sapiens) (UniProt Q9NXA8); assay: Substrate activity at human N-terminal His-tagged SIRT5 (34 to 302 residues) expressed in Escherichia coli at 50 uM measured after 2 hrs in presence of NAD+ and trypsin by fluorescence assay
[16] = biological target: T2, NAD-dependent protein deacetylase sirtuin-3, mitochondrial (Homo sapiens); assay: Substrate activity at human N-terminal His-tagged SIRT3 (122 to 391 residues) expressed in Escherichia coli at 50 uM measured after 2 hrs in presence of NAD+ and trypsin by fluorescence assay
[17] = biological target: T3, NAD-dependent protein deacetylase sirtuin-2 (Homo sapiens); assay: Substrate activity at human N-terminal His-tagged SIRT2 (56 to 356 residues) expressed in Escherichia coli at 50 uM measured after 2 hrs in presence of NAD+ and trypsin by fluorescence assay
[18] = biological target: T4, NAD-dependent protein deacetylase sirtuin-1 (Homo sapiens); assay: Substrate activity at human N-terminal His-tagged SIRT1 (183 to 664 residues) expressed in Escherichia coli at 50 uM measured after 2 hrs in presence of NAD+ and trypsin by fluorescence assay

Sequence of NAD-dependent protein deacylase sirtuin-6 (Homo sapiens) (Q8N6T7 whole entry, the tested form may be a part): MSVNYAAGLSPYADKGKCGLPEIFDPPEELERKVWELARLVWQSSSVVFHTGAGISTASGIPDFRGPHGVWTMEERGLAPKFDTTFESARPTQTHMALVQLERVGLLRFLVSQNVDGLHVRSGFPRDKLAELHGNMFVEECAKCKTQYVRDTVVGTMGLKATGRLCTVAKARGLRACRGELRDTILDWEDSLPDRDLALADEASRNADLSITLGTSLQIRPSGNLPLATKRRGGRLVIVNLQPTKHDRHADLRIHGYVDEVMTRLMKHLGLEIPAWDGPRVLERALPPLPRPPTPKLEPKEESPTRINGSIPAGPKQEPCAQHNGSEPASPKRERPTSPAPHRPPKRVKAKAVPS
Sequence of NAD-dependent protein deacylase sirtuin-5, mitochondrial (Homo sapiens) (Q9NXA8 37-310 limits assumed): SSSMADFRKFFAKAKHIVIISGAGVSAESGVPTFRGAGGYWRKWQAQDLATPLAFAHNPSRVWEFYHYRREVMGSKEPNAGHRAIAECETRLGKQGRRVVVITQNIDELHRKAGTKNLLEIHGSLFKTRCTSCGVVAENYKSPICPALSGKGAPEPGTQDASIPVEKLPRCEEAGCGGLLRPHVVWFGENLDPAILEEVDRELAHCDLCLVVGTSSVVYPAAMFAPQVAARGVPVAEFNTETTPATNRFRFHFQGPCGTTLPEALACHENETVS

Activity [1]	Activity [2]	Activity [3]	Activity [4]	Activity [5]	Activity [6]	Activity [7]	Activity [8]	Activity [9]	Activity [10]	Activity [11]	Activity [12]	Activity [13]	Activity [14]	Activity [15]	Activity [16]	Activity [17]	Activity [18]	Structure (SMILES)
0.39 RFU	0.48 RFU	0.26 RFU	0.32 RFU	0.31 RFU	0.31 RFU	0.65 RFU	0.36 RFU	0.29 RFU	1.29 RFU	1.13 RFU	3.38 RFU	0.58 RFU	0.58 RFU	0.81 RFU	7.07 RFU	6.75 RFU	21.2 RFU	CC(=O)NCCCC[C@H](NC(=O)[C@H](CO)NC(=O)[C@H](Cc1ccccc1)NC(=O)[C@H](CC(=O)O)NC(C)=O)C(=O)Nc1ccc2c(C)cc(=O)oc2c1 (Ac-DFSK(Ac)-{AMC})
0.34 RFU	0.51 RFU	0.24 RFU	0.4 RFU	0.26 RFU	0.26 RFU	0.3 RFU	0.62 RFU	0.36 RFU	0.51 RFU	1.03 RFU	0.89 RFU	1.5 RFU	1.5 RFU	1.54 RFU	1.79 RFU	2.6 RFU	2.28 RFU	CCCCCCCCCC(=O)NCCCC[C@H](NC(=O)[C@H](CCCNC(=N)N)NC(=O)[C@H](CC(C)C)NC(=O)[C@H](CC(=O)O)NC(C)=O)C(=O)Nc1ccc2c(C)cc(=O)oc2c1 (Ac-DLRK(Decanoyl)-{AMC})
0.29 RFU	0.4 RFU	0.32 RFU	0.49 RFU	0.21 RFU	0.21 RFU	0.34 RFU	0.44 RFU	0.82 RFU	0.64 RFU	0.33 RFU	0.55 RFU	1.89 RFU	1.89 RFU	2.63 RFU	2.47 RFU	1.03 RFU	2.05 RFU	CC[C@H](C)[C@H](NC(C)=O)C(=O)N[C@@H](CCCNC(=N)N)C(=O)N[C@H](C(=O)N[C@@H](CCCCNC(=O)CCC(=O)O)C(=O)Nc1ccc2c(C)cc(=O)oc2c1)[C@@H](C)CC (Ac-IRIK(Suc)-{AMC})
0.6 RFU	0.46 RFU	0.28 RFU	0.51 RFU	1.68 RFU	1.68 RFU	0.44 RFU	0.74 RFU	0.24 RFU	0.73 RFU	1.72 RFU	0.74 RFU	1.09 RFU	1.09 RFU	0.78 RFU	0.85 RFU	3.19 RFU	1.1 RFU	CCCCCCCCCC(=O)NCCCC[C@H](NC(=O)[C@H](CCC(N)=O)NC(=O)[C@@H](NC(=O)[C@H](CCCCN)NC(C)=O)C(C)C)C(=O)Nc1ccc2c(C)cc(=O)oc2c1 (Ac-KVQK(Decanoyl)-{AMC})
0.29 RFU	0.39 RFU	0.31 RFU	0.51 RFU	0.29 RFU	0.29 RFU	0.49 RFU	0.42 RFU	0.34 RFU	0.79 RFU	1.18 RFU	0.76 RFU	1.32 RFU	1.32 RFU	1.99 RFU	3.19 RFU	5.3 RFU	2.87 RFU	CCCCCCCCCC(=O)NCCCC[C@H](NC(=O)[C@H](CCCCN)NC(=O)[C@@H]1CCCN1C(=O)[C@H](CC(N)=O)NC(C)=O)C(=O)Nc1ccc2c(C)cc(=O)oc2c1 (Ac-NPKK(Decanoyl)-{AMC})
0.38 RFU	0.49 RFU	0.27 RFU	0.34 RFU	0.23 RFU	0.23 RFU	0.32 RFU	0.36 RFU	0.28 RFU	0.41 RFU	0.24 RFU	0.37 RFU	0.44 RFU	0.44 RFU	1.02 RFU	0.67 RFU	0.52 RFU	1.21 RFU	CC(=O)NCCCC[C@H](NC(=O)[C@H](CCCNC(=N)N)NC(=O)[C@H](CO)NC(=O)[C@H](CC(N)=O)NC(C)=O)C(=O)Nc1ccc2c(C)cc(=O)oc2c1 (Ac-NSRK(Ac)-{AMC})
